For the assay, the system named is HL-60. As to the kind of experiment: Cell killing in HL-60 by CCK-8. The format is cell-based. The following applies: HL-60, 48 h. The protocol: • a) Cell line: HL-60 • b) Procedure • (1) Normally cultured HL-60 cells in the logarithmic growth phase were centrifuged at 800 rpm for 5 min to discard the supernatant. Approximately 3 mL of normal medium was added to resuspend the cell pellet by gently pipetting up and down. The cells were then counted using a cell counter and inoculated onto a 96-well plate. • (2) Sample solutions with different concentration gradients were prepared. Approximately 10 µL of each solution was added to the 96-well plate, with 3 to 6 replicate wells for each concentration, and incubated in a 5% CO2 incubator at 37°C for 48 h. • (3) CCK-8 was equilibrated to room temperature before use, and 10 µL of CCK-8 solution was added to each well. • (4) The plate was incubated in the incubator for 0.5-4 h in the dark, with the incubation time depending on experimental conditions such as cell type and density. • (5) The absorbance was measured at 450 nm using a microplate reader. • c) Data analysis Cell viability = [(As−Ab)/(Ac−Ab)] × 100% [formula] Inhibition% = [(Ac−As)/(Ac−Ab)] × 100% [formula] • As: absorbance of sample well (containing cells + medium + CCK-8 solution + drug solution); • Ac: absorbance of control well (containing cells + medium + CCK-8 solution); • Ab: absorbance of blank well (containing medium + CCK-8 solution); • The results were processed and analyzed using Excel and Graphpad Prism to obtain the IC50. Table 4: Test Results of Cell Killing in HL-60 for 48 h

For the compound `CC[C@H](C)[C@@H]([C@@H](CC(=O)N1CCC[C@H]1[C@H](OC)[C@@H](C)C(=O)N[C@H](C)[C@@H](O)c1ccccc1)OC)N(C)C(=O)[C@@H](NC(=O)[C@H](C(C)C)N(C)C(=O)OCc1ccc(NC(=O)[C@H](CCCNC(N)=O)NC(=O)[C@@H](NC(=O)CCCCCN2C(=O)CC(SC[C@H](NC(C)=O)C(=O)NCCOCCOCC(=O)N[C@@H](CCCNC(=N)N)C(=O)N[C@@H](CCCNC(=N)N)C(=O)N[C@@H](CC(C)C)C(=O)N[C@@H](Cc3ccccc3)C(=O)N[C@H]3CSSC[C@@H](C(=O)N[C@H](C(=O)N[C@@H](Cc4c[nH]c5ccccc45)C(=O)N[C@@H](CCCNC(=N)N)C(=O)N[C@@H](CC(=O)O)C(N)=O)[C@@H](C)O)NC(=O)[C@H]([C@@H](C)O)NC(=O)[C@H](CCCCN)NC(=O)[C@@H](Cc4c[nH]c5ccccc45)NC(=O)[C@H](Cc4ccc(O)cc4)NC3=O)C2=O)C(C)C)cc1)C(C)C` (stereo partly drawn) [Example 1, Cys(MC-Val-Cit-PABC-MMAE)-AEEA-Arg-Arg-Leu-Phe-[Cys-Tyr-D-Trp-Lys-Thr-Cys]-Thr-Trp-Arg-Asp-NH2], the “Bottom (Inhibition at Lowest Point)” value came to 1.71 and the “Top (Inhibition at Highest Point)” value is given as 86.42.

These data come from patent publication EP4772530A1, “PEPTIDE TARGETING SOMATOSTATIN RECEPTOR, DRUG CONJUGATE AND USE THEREOF” (Mainline Biosciences (Shanghai) Co., Ltd., priority 2023, dated 2025).
